# Reference: ChEMBL document CHEMBL6103643, “Total Synthesis of (-)- and (+)-Talaroenamine B and Diphenylene Derivatives” (J Nat Prod, 2025)
# Where a name gives a salt, the structure may show the parent alone.
# How the values were obtained:
# [1] = tested on: K562; test: Cytotoxicity against human K562 cells assessed as inhibition of cell growth by MTT assay; type: functional, cell-based
# [2] = tested on: ASPC1; test: Cytotoxicity against human ASPC1 cells assessed as inhibition of cell growth by SRB assay; type: functional, cell-based
# [3] = target: Acetylcholinesterase (Homo sapiens, UniProt P22303); test: Inhibition of AChE (unknown origin) by Ellman's method
# Sequence of Acetylcholinesterase (P22303 whole entry): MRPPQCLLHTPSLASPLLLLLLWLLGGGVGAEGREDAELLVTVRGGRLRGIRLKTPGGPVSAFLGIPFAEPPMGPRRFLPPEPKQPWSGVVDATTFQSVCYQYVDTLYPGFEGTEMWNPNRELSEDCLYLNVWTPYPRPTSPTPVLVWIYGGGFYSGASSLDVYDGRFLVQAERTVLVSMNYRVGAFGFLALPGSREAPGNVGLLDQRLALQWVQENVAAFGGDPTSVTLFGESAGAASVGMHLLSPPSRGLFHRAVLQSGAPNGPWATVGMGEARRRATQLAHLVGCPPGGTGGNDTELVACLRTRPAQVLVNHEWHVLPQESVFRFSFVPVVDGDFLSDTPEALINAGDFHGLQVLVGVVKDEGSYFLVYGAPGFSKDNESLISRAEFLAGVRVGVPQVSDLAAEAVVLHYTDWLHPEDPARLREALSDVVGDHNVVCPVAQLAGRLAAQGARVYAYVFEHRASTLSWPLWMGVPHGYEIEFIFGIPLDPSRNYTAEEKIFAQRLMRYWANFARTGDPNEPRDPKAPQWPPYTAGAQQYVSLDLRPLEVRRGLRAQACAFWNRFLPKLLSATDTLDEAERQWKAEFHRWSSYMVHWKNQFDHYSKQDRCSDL
# [4] = tested on: NCI-H446; test: Cytotoxicity against human NCI-H446 cells assessed as inhibition of cell growth by SRB assay; type: functional, cell-based
# [5] = Cytotoxicity against human L02 cells assessed as inhibition of cell growth by SRB assay; type: toxicity, cell-based
# [6] = Cytotoxicity against human Cisplatin/etoposide-resistant NCI-H446/EP cells assessed as inhibition of cell growth by SRB assay; type: functional, cell-based
# [7] = Selectivity index, ratio of IC50 for cytotoxicity against human L02 cells to IC50 for cytotoxicity against human K562 cells; type: toxicity, cell-based; settings: L02 cells and K562 cells, read-out: Ratio IC50
Compound,IC50 [1] [µM],IC50 [2] [µM],IC50 [3] [µM],IC50 [4] [µM],IC50 [5] [µM],IC50 [6] [µM],selectivity ratio [7]
CC1=CC(=O)[C@](C)(O)C(=O)/C1=C\Nc1ccc(Oc2ccc(C)cc2)cc1,> 30,> 30,> 100,> 30,19.8,> 30,–
CC1=CC(=O)[C@](C)(O)C(=O)/C1=C\Nc1ccccc1,> 30,> 30,> 100,> 30,> 30,> 30,–
CC1=CC(=O)[C@](C)(O)C(=O)/C1=C\Nc1ccc(Oc2cccc(F)c2)cc1,15.5,> 30,> 100,> 30,> 30,> 30,> 1.9
CC1=CC(=O)[C@](C)(O)C(=O)/C1=C\Nc1ccc(Cc2ccccc2)cc1,5.6,> 30,4.5,> 30,18.6,> 30,3.3
CC1=CC(=O)[C@@](C)(O)C(=O)/C1=C\Nc1ccc(Oc2ccc(C#N)cc2)cc1,> 30,> 30,4.7,> 30,> 30,> 30,–
CC1=CC(=O)[C@](C)(O)C(=O)/C1=C\Nc1ccc(Oc2ccc(Cl)cc2)cc1,9.5,> 30,> 100,> 30,17,> 30,1.7
CC1=CC(=O)[C@](C)(O)C(=O)/C1=C\Nc1ccc(Oc2ccc([N+](=O)[O-])cc2)cc1,> 30,> 30,68.1,> 30,> 30,> 30,–
CC1=CC(=O)[C@@](C)(O)C(=O)/C1=C\Nc1ccc(Oc2ccc(Cl)cc2)cc1,> 30,> 30,> 100,> 30,> 30,> 30,–
CC1=CC(=O)[C@@](C)(O)C(=O)/C1=C\Nc1ccc(Cc2ccccc2)cc1,> 30,> 30,> 100,> 30,> 30,> 30,–
COc1cccc2c1C(=O)c1c(O)c3c(c(O)c1C2=O)C[C@@](O)(C(=O)CO)C[C@@H]3O[C@H]1C[C@H](N)[C@H](O)[C@H](C)O1 [DOXORUBICIN HYDROCHLORIDE],–,15.1,–,0.3,–,0.2,–
CC1=CC(=O)[C@@](C)(O)C(=O)/C1=C\Nc1ccc(Oc2ccc([N+](=O)[O-])cc2)cc1,> 30,> 30,> 100,> 30,> 30,> 30,–
CC1=CC(=O)[C@@](C)(O)C(=O)/C1=C\Nc1ccc(Oc2cccc(F)c2)cc1,> 30,> 30,> 100,> 30,> 30,> 30,–
CC1=CC(=O)[C@@](C)(O)C(=O)/C1=C\Nc1ccc(Oc2ccc(C)cc2)cc1,> 30,> 30,> 100,> 30,> 30,> 30,–
CC1=CC(=O)[C@@](C)(O)C(=O)/C1=C\Nc1ccccc1,> 30,> 30,> 100,> 30,> 30,> 30,–
CC1=CC(=O)[C@](C)(O)C(=O)/C1=C\Nc1ccc(Oc2ccc(C#N)cc2)cc1,> 30,> 30,24.4,> 30,> 30,> 30,–
